Test results from publication PMC3348654 (The Journal of Neuroscience, 2012).

Legend:
[1] = C and EC metabolite levels in rat brain tissue after 10 days repeated dosing; format: in vivo; conditions: rats, following repeated dosing with GP or with Mo
[2] = test system: MEK1 (Ser222); assay: Multiplex phospho-MEK immunoassay in hippocampal slices; format: cell-based; conditions: 300 nM, 5 hours, hippocampal slices from old Tg2576 mice
[3] = test system: brain slices from wild type mice; assay: Electrophysiological recordings in brain slices from age-matched wild type mice; format: cell-based; conditions: 300 nM
[4] = test system: CaMKII; assay: Western blot of phospho- and total CaMKII in hippocampal slices; format: cell-based; conditions: 300 nM, 5 hours, hippocampal slices from old Tg2576 mice
[5] = test system: Erk/MAP kinase 1/2 (Thr185/Tyr187); assay: Multiplex phospho-Erk1/2 immunoassay in hippocampal slices; format: cell-based; conditions: 300 nM, 5 hours, hippocampal slices from old Tg2576 mice
[6] = test system: CREB (Ser133); assay: Phospho-CREB immunoassay in hippocampal slices; format: cell-based; conditions: 300 nM, 5 hours, hippocampal slices from old Tg2576 mice, versus vehicle
[7] = test system: PKA; assay: PKA activity assay and PKA IIa protein content in hippocampal slices; format: cell-based; conditions: 300 nM, 5 hours, hippocampal slices from old Tg2576 mice
[8] = test system: hippocampal slices from Tg2576 mice; assay: Electrophysiological recordings; format: cell-based; conditions: 300 nM, 4–5 h, hippocampal slices from old Tg2576 mice, versus vehicle

Row | phosphorylation status of Erk1/2 (Thr185/Tyr187) [5] | Compound | free C and EC contents in the brain [1] | phosphorylation status of MEK [2] | LTP [3] | basal synaptic transmission [3] | level of [Thr286]-phosphorylated, active CaMKII [4] | level of total CaMKII [4] | levels of [Ser133]-phosphorylated, active CREB [6] | PKA (PKA activity assay and PKA IIa protein content) [7] | basal synaptic transmission in the CA1 region [8]
1 | – | Oc1cc(O)c2c(c1)OC(c1ccc(O)c(O)c1)C(O)C2 (single isomer, unassigned; (+)) [C, (+)-catechin] | trace contents (below levels for quantification) | – | – | – | – | – | – | – | –
2 | did not modulate | COc1cc([C@H]2Oc3cc(O)cc(O[C@@H]4O[C@H](C(=O)O)[C@@H](O)[C@H](O)[C@H]4O)c3C[C@H]2O)ccc1O [3’-O-Me-EC-Gluc, 3’-O-methyl-epicatechin-5-O-β-glucuronide] | – | did not modulate | did not have any effect | did not have any effect | significantly increased | without influencing | significantly increased | nor did it affect | significantly increased
3 | – | Oc1cc(O)c2c(c1)O[C@H](c1ccc(O)c(O)c1)[C@H](O)C2 [EC, (−)-epicatechin] | trace contents (below levels for quantification) | – | – | – | – | – | – | – | –
